Literature values as cited in patent publication US20110268669A1, “COMPOSITION AND METHOD FOR TREATING EUSTACHIAN TUBE DYSFUNCTION” (priority 2010, published 2011).

Settings: taken as a chewing gum

With `OC[C@@H](O)[C@H](O)[C@@H](O)CO` [Xylitol] as the compound, how does the “prevention of otitis media” value read?
The value was “shown to prevent otitis media”.
